The record followed here is patent US6479531B1, “Gastrin and cholecystokinin receptor ligands” (James Black Foundation Limited, priority 1998, dated 2002).

The target of this assay is T1, CCKB receptor (Mus musculus, UniProt P56481).
T1 construct: The whole brains from male mice (CD1 22-25 g; Charles River) were removed; from tissue; host or cells: cerebral cortex membranes of male CD1 mice
T1 sequence (P56481 1-453): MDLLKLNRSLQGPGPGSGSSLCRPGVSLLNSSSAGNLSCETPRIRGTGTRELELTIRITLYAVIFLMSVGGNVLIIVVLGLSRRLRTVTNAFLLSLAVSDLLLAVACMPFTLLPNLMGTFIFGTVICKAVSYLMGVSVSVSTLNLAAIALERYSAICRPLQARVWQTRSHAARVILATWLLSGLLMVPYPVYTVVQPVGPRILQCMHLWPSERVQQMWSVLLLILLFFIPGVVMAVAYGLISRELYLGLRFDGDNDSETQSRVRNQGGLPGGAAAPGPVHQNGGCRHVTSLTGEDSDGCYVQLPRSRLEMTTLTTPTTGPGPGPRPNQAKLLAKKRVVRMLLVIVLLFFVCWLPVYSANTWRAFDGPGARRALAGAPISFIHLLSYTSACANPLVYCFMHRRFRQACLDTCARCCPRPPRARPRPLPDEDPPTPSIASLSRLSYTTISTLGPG
As to the kind of experiment: CCKB receptor radioligand binding assay in mouse cortical membranes. The conditions noted are these: [125I]-CCK8(S) 200 pM, 150 min at 21±3°, read-out: CCKB pKi (converted). As to the method: The compounds of the examples were tested for binding at the CCKB receptor in mouse cortical membranes by means of a radioligand binding assay. The procedure was as follows:
The whole brains from male mice (CD1 22-25 g; Charles River) were removed and placed in ice-cold buffer (pH 7.2 @ 21±3°) of the following composition (mM); 10 HEPES, 130 NaCl, 4.7 KCl, 5 MgCl2, 1 EDTA and containing 0.25 gl^−1 bacitracin. The cortex was dissected, weighed and homogenised in 40 ml ice-cold buffer using a Teflon-in-glass homogeniser. The homogenate was centrifuged at 39800 g for 20 min […], the supernatant discarded and the pellet resuspended by homogenisation in fresh buffer. The homogenate was recentrifuged (39800 g, 20 min @ 4°) and the final pellet was resuspended in HEPES buffer to give a tissue concentration of 20 mg ml^−1 (original wet weight).
The assay was terminated by rapid filtration through pre-soaked Whatman GF/B filters using a Brandell Cell Harvester. The filters were washed (3×3 ml) with ice-cold 50 mM Tris-HCl (pH 7.4 @ 4° C.) and bound radioactivity determined by counting (1 min) in a gamma-counter.

Regarding `O=C(O)c1cc(NC(=O)c2nc(-c3ccccc3)[nH]c2CCC2CCCCCC2)cc(C(=O)O)c1` [Example 39, 5-{[5-(2-Cycloheptyl-ethyl)-2-phenyl-1H-imidazole-4-carbonyl]-amino}-isophthalic Acid], the Ki was 2040 nM.
Take `O=C(O)c1cc(NC(=O)c2nc(-c3ccccc3C(F)(F)F)[nH]c2CCC2CCCCCC2)cc(C(=O)O)c1` [Example 41, 5-{[5-(2-Cycloheptyl-ethyl)-2-(2-trifluoromethyl-phenyl)-1H-imidazole-4-carbonyl]-amino}-isophthalic Acid]: the Ki is 4370 nM.
As to `O=C(O)c1cc(NC(=O)c2nc(-c3ccc4ccccc4c3)[nH]c2CCC23CC4CC(CC(C4)C2)C3)cc(C(=O)O)c1` [Example 44, 5-{[5-(2-Adamantan-1-yl-ethyl)-2-naphthalene-2-yl-1H-imidazole-4-carbonyl]-amino}-isophthalic Acid], the Ki is 120 nM.
Then `O=C(O)c1cccc(NC(=O)c2nc(-c3ccc4ccccc4c3)[nH]c2CCC23CC4CC(CC(C4)C2)C3)c1` [Example 45, 3-{[5-(2-Adamantan-1-yl-ethyl)-2-naphthalen-2-yl-1H-imidazole-4-carbonyl]-amino}-benzoic Acid], with 501 nM.
Then `O=C(Nc1cccc(CO)c1)c1nc(-c2ccccc2)[nH]c1CCC12CC3CC(CC(C3)C1)C2` [Example 48, 5-(2-Adamantan-1-yl-ethyl)-2-phenyl-1H-imidazole-4-carboxylic Acid (3-hydroxymethyl-phenyl)-amide], with 269 nM; and `O=C(Nc1cccc(-c2nnn[nH]2)c1)c1nc(-c2ccccc2)[nH]c1CCC12CC3CC(CC(C3)C1)C2` [Example 49], with 182 nM.
`O=C(O)c1ccc(NC(=O)c2nc(-c3ccccc3F)[nH]c2CCC23CC4CC(CC(C4)C2)C3)cc1` [Example 51, 4-{[5-(2-Adamantan-1-yl-ethyl)-2-(2-fluoro-phenyl)-1H-imidazole-4-carbonyl]-amino}-benzoic Acid]: the Ki was 2630 nM.
In the case of `O=C(O)CCNC(=O)c1nc(-c2ccccc2F)[nH]c1CCC12CC3CC(CC(C3)C1)C2` [Example 52, 3-{[5-(2-Adamantan-1-yl-ethyl)-2-(2-fluoro-phenyl)-1H-imidazole-4-carbonyl]-amino}-propionic Acid], the Ki was 2570 nM.
As for `O=C(O)CNC(=O)c1nc(-c2ccccc2F)[nH]c1CCC12CC3CC(CC(C3)C1)C2` [Example 53, 2-{[5-(2-Adamantan-1-yl-ethyl)-2-(2-fluoro-phenyl)-1H-imidazole-4-carbonyl]-amino}-acetic Acid], the Ki is 1660 nM.
As to `O=C(O)c1cccc(NC(=O)c2nc(-c3ccccc3O)[nH]c2CCC23CC4CC(CC(C4)C2)C3)c1` [Example 64, 3-{[5-(2-Adamantan-1-yl-ethyl)-2-(2-hydroxy-phenyl)-1H-imidazole-4-carbonyl]-amino}-benzoic Acid], the Ki was 1380 nM.
On to `O=C(O)c1cccc(NC(=O)c2nc(-c3ccc(Cl)c(Cl)c3)[nH]c2CCC23CC4CC(CC(C4)C2)C3)c1` [Example 68, 3-{[5-(2-Adamantan-1-yl-ethyl)-2-(3,4-dichloro-phenyl)-1H-imidazole-4-carbonyl]-amino}-benzoic Acid], for which the Ki is 468 nM.
For the molecule `CN(C)c1ccccc1-c1nc(C(=O)Nc2cccc(C(=O)O)c2)c(CCC23CC4CC(CC(C4)C2)C3)[nH]1` [Example 70, 3-{[5-(2-Adamantan-1-yl-ethyl)-2-(2-dimethylamino-phenyl)-1H-imidazole-4-carbonyl]-amino}-benzoic Acid], the Ki was 245 nM.
Consider `O=C(O)c1cccc(NC(=O)c2nc[nH]c2CCC23CC4CC(CC(C4)C2)C3)c1` [Example 77, 3-{[5-(2-Adamantan-1-yl-ethyl)-1H-imidazole-4-carbonyl]-amino}-benzoic Acid], for which the Ki is 10000 nM.
With `O=C(O)Cc1cccc(NC(=O)c2nc(-c3ccccc3)[nH]c2CCC23CC4CC(CC(C4)C2)C3)c1` [Example 82, (3-{[5-(2-Adamantan-1-yl-ethyl)-2-phenyl-1H-imidazole-4-carbonyl]-amino}-phenyl)-acetic Acid], the Ki is 13.2 nM.
